Source: patent US5260447A, “Polyhydroxycyclopentane derivatives, their preparation and their therapeutic use” (Sankyo Company, Limited, priority 1992, dated 1993)

Assays:
β-glucosidase = test: Inhibitory activity against β-glucosidase (p-nitrophenyl-β-D-glucopyranoside hydrolysis, absorbance at 405 nm); assay type: biochemical; conditions: pH 5.6, 37° C., 15 min preincubation, 20 min reaction; enzyme from almonds
Text: Inhibitory activity of 5-amino-1-(hydroxymethyl)cyclopentane-1,2,3,4-tetraol against β-glucosidase
Samples of β-glucosidase (separated from almonds), p-nitrophenyl-β-D-glucopyranoside, deoxynojirimycin and castanospermine used in this experiment were all purchased from Sigma Chemicals Co.
The test compounds used were 5-amino-1-(hydroxymethyl)cyclopentane-1,2,3,4-tetraol [compound (I)], and deoxynojirimycin or castanospermine, both of which are known compounds having this type of activity.
A mixture of 0.01 unit/ml of β-glucosidase and 100 μl of a buffer solution (pH 5.6) comprising 20 mM of citric acid, 40 mM of disodium phosphate and the compound under test was allowed to stand at 37° C. for 15 minutes. At the end of this time, 50 μl of a buffer solution containing 3 mg/ml of p-nitrophenyl-β-D-glucopyranoside were added to the mixture, which was then allowed to react at 37° C. for 20 minutes. 20 μl of a 1M glycine/sodium hydroxide buffer solution (pH 10.4) were added to the reaction mixture, and the quantity of p-nitrophenol liberated was monitored by absorbance at 405 nm. Table 7 lists the concentrations β-glucosidase by 50% (IC50).

Solubility = assay type: physicochemical
silkworm trehalase = biological target: T1, silkworm trehalase (Bombyx mori, UniProt P32358); test: Inhibitory activity against silkworm trehalase (crude enzyme from silkworm larvae, glucose determination); assay type: biochemical; conditions: pH 5.6, 37° C., 15 min preincubation, 15 min reaction; substrate trehalose; read-out: concentration needed to inhibit the enzyme activity by 50% (IC50), silkworm trehalase (converted)
T1 construct: Ten silkworm larvae of the fifth instar (total weight 44 g) were homogenized; from tissue; host or cells: whole silkworm larvae, fifth instar; acetone precipitate of homogenate supernatant
T1 sequence (P32358 16-579): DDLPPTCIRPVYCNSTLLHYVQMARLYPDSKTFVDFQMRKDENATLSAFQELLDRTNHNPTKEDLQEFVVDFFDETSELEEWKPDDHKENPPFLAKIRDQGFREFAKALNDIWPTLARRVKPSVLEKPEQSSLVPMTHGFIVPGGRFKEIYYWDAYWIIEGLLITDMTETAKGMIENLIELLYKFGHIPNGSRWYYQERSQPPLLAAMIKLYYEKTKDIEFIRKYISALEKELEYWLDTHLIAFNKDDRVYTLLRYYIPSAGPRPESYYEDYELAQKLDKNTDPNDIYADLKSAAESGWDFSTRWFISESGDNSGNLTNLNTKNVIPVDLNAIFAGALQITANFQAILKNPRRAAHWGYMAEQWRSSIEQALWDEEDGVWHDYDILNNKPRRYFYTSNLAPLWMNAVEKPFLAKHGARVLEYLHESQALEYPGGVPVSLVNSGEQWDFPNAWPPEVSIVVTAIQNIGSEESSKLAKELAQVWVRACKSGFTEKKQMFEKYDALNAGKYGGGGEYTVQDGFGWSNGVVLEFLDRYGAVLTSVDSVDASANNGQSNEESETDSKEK
Method: Inhibitory activity of trehazolin against silkworm trehalase
Ten silkworm larvae of the fifth instar (total weight 44 g) were homogenized using a Polytrone (trade mark) homogenizer in 120 ml of a buffer solution (pH 5.6) prepared using 20 mM of citric acid and 40 mM of disodium phosphate for 2 minutes, whilst ice-cooling (the same buffer solution was also used hereafter). The homogenized mixture was then centrifuged at a speed of 6,000 rpm for 10 minutes, and the supernatant was separated. 240 ml of acetone were added to 120 ml of the supernatant, whist ice-cooling and stirring, and the resulting mixture was centrifuged at a speed of 9,000 rpm for 20 minutes. The sediment was separated and dissolved in water, and the resulting solution was lyophilized, to give 2.0 g of the crude enzyme.
130 μl of the above buffer solution, 50 μl of a sample solution containing trehazolin at various concentrations and 50 μl of a silkworm enzyme solution prepared as described above and containing 4 mg/ml of the enzyme were placed in a test-tube, and the mixture was shaken on a water bath kept at 37° C. for 15 minutes. […]
The reaction was conducted using glucose C-test Wako (a product of Wako Pure Chemical Industries Ltd.) and 10-fold quantities of the sample solution over that of the standard procedure.

rat sucrase = biological target: T2, rat sucrase (Rattus norvegicus, UniProt P23739); test: Inhibitory activity against rat sucrase (brush border membrane enzyme of rat small intestine, glucose liberated at 492 nm); assay type: biochemical, rat (Wistar strain); conditions: pH 6.2, 37°, 20 minutes; substrate sucrose; read-out: concentration required to inhibit the activity of rat sucrase by 50% (IC50) (converted)
T2 construct: a brush border membrane enzyme solution of a rat small intestine was prepared from the small intestines; from tissue; host or cells: small intestine brush border membrane, male Wistar rats
T2 sequence (P23739 1014-1841 limits assumed): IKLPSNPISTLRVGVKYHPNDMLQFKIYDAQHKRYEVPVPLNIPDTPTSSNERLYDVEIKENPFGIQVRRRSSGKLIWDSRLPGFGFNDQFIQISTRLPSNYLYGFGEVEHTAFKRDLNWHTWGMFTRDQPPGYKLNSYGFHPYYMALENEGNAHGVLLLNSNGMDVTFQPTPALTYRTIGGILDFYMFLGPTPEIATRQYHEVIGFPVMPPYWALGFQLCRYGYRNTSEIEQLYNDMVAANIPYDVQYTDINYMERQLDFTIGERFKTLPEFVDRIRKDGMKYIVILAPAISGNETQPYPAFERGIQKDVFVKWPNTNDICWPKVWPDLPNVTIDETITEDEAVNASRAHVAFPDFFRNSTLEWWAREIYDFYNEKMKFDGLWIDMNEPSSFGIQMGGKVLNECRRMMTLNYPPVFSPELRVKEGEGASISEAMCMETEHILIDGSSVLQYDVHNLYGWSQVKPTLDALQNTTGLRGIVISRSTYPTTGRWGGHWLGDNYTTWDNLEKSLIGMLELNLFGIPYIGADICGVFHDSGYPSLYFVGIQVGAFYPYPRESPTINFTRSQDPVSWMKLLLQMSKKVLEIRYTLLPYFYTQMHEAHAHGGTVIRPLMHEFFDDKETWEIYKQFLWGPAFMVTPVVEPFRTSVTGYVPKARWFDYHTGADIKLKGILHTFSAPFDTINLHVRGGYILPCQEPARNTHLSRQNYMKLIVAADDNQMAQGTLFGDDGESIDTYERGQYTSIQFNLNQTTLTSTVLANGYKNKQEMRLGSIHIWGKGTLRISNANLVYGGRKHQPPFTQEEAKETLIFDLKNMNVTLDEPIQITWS
T2 sequence (P23739 1-1013 partner limits assumed): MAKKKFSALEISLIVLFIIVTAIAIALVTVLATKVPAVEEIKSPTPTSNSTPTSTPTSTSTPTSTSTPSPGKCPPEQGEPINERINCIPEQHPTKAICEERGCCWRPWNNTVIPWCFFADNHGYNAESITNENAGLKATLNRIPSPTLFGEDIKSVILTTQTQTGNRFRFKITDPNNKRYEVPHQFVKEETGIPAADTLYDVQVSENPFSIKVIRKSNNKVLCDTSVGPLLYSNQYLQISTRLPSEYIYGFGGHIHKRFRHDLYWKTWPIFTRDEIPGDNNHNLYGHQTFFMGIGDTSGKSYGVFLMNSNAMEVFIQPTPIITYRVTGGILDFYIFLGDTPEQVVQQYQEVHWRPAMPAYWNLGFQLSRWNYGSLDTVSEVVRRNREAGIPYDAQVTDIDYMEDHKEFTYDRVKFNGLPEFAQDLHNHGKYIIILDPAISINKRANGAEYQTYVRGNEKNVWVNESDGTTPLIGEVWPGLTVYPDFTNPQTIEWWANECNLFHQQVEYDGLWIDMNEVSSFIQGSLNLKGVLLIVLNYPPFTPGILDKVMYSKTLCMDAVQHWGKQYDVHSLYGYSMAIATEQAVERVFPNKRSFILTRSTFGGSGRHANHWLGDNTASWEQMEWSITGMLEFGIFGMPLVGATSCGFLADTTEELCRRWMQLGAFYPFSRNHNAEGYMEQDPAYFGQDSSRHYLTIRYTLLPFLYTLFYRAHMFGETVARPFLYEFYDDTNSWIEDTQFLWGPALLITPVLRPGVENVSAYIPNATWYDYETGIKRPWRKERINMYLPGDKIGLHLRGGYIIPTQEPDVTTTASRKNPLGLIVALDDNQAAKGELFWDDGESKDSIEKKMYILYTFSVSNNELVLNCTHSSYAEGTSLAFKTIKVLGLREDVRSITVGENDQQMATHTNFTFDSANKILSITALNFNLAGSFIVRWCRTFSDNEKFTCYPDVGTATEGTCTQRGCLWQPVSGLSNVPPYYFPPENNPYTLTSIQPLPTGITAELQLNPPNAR
Method: Inhibitory activity of 2-amino-4-(hydroxymethyl)-3a-5,6,6a-tetrahydro-4H-cyclopent[d]oxazole-4,5,6-triol [compound (II)] against rat sucrase
According to the method of M. Kessler et al. Biochimica et Biophysica Acta, 506, 136-154(1978)], a brush border membrane enzyme solution of a rat small intestine was prepared from the small intestines of three male rats of the Wistar strain and suspended in 3 ml of physiological saline.
A sample of 4-aminoantipyrine (A 4382) was purchased from Sigma Chemical Co., and samples of peroxidase (Grade I) and glucose oxidase (Grade I) were purchased from Boehringer Mannheim Co. A buffer solution (pH 6.2) comprising 20 mM of citric acid and 40 mM of disodium phosphate was used as the diluent in the following experiment.
Each well of a micro-titer plate with 96 wells (a product of Falcon Co.) was filled with 130 μl in all of a mixture which contained 0.2 mg of bovine serum albumin (Sigma, A 7906), 3 units of glucose oxidase, 0.132 unit of peroxidase, 20 μg of 4-aminoantipyrine, 40 μg of phenol, 3 μ mole of sucrose and a test compound. To the well were added 20 μl of 100-fold diluted solution of a brush border membrane enzyme solution of rat small intestine. The mixture was allowed to react at 37° for 20 minutes and the quantity of glucose liberated was monitored by absorbance at 492 nm. […]

OC[C@H]1NC[C@H](O)[C@@H](O)[C@@H]1O [Deoxynojirimycin, deoxynojirimycin]
50% inhibitory concentration of β-glucosidase (IC50) (β-glucosidase): 15 µg/mL

NC1C(O)C(O)C(O)C1(O)CO (stereo not drawn) [Compound (I), 5-amino-1-(hydroxymethyl)cyclopentane-1,2,3,4-tetraol]
50% inhibitory concentration of β-glucosidase (IC50) (β-glucosidase): 1.0 µg/mL
Solubility in acetone (Solubility): insoluble
Solubility in chloroform (Solubility): insoluble
Solubility in water (Solubility): soluble

OCC1OC(NC2=NC3C(O2)C(O)C(O)C3(O)CO)C(O)C(O)C1O (stereo not drawn) [trehazolin, reference compound]
IC50 (silkworm trehalase): 0.00546 µM
Solubility in acetone (Solubility): insoluble
Solubility in chloroform (Solubility): insoluble
Solubility in methanol (Solubility; methanol): soluble
Solubility in water (Solubility): soluble

NC1=NC2C(O1)C(O)C(O)C2(O)CO (stereo not drawn) [(II), 2-amino-4-(hydroxymethyl)-3a,5,6,6a-tetrahydro-4H-cyclopent[d]oxazole-4,5,6-triol]
Solubility in acetone (Solubility): insoluble
Solubility in chloroform (Solubility): insoluble
Solubility in water (Solubility): soluble
IC50 (rat sucrase): 88.2 µM

O[C@H]1[C@H](O)[C@@H](O)CN2CC[C@H](O)[C@H]12 [Castanospermine, castanospermine]
50% inhibitory concentration of β-glucosidase (IC50) (β-glucosidase): 4.3 µg/mL
